PubChem BioAssay AID330 (DTP/NCI, 2004)
“And” between values parts separate entries of the source, which are not always exact repeats. Identical values can stand only once. Inconclusive results and toxic doses are left out. Rule for the calls: active = survival T/C of 150% or more; inactive = T/C below 125% in these data.

Tested on: P388 leukemia ip, CD2F1 mice, survival T/C
Assay: NCI In Vivo Anticancer Drug Screen. Data for tumor model P388 Leukemia (intraperitoneal) in CD2F1 (CDF1) mice
Conditions: endpoint: median survival time, higher = longer survival
Summary of the method: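 Mice carrying the transplanted tumor received test compound or vehicle. Survival was recorded in each group, and the value is the treated-group measurement divided by that of the vehicle-treated control group.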

[1] = dose: 30.0 mg/kg/injection, schedule: Q01DX005 (ip), vehicle: Klucel (hydroxypropylcellulose) (HPC)
[2] = dose: 60.0 mg/kg/injection, schedule: Q01DX005 (ip), vehicle: Klucel (hydroxypropylcellulose) (HPC)
[3] = dose: 120.0 mg/kg/injection, schedule: Q01DX005 (ip), vehicle: Klucel (hydroxypropylcellulose) (HPC)
[4] = dose: 50.0 mg/kg/injection, schedule: Q01DX005 (ip), vehicle: saline with Tween-80
[5] = dose: 100.0 mg/kg/injection, schedule: Q01DX005 (ip), vehicle: saline with Tween-80
[6] = dose: 200.0 mg/kg/injection, schedule: Q01DX005 (ip), vehicle: saline with Tween-80
[7] = dose: 100.0 mg/kg/injection, schedule: Q04DX003 (ip), vehicle: saline with Tween-80
[8] = dose: 200.0 mg/kg/injection, schedule: Q04DX003 (ip), vehicle: saline with Tween-80
[9] = dose: 50.0 mg/kg/injection, schedule: Q01DX005 (ip), vehicle: Klucel (hydroxypropylcellulose) (HPC)
[10] = dose: 100.0 mg/kg/injection, schedule: Q01DX005 (ip), vehicle: Klucel (hydroxypropylcellulose) (HPC)
[11] = dose: 200.0 mg/kg/injection, schedule: Q01DX005 (ip), vehicle: Klucel (hydroxypropylcellulose) (HPC)
[12] = dose: 60.0 mg/kg/injection, schedule: Q01DX005 (ip), vehicle: saline with Tween-80
[13] = dose: 120.0 mg/kg/injection, schedule: Q01DX005 (ip), vehicle: saline with Tween-80
[14] = dose: 240.0 mg/kg/injection, schedule: Q01DX005 (ip), vehicle: saline with Tween-80
[15] = dose: 240.0 mg/kg/injection, schedule: Q01DX005 (ip), vehicle: Klucel (hydroxypropylcellulose) (HPC)

Measured: T/C

CN(C(=[Se])[Se]C(=[Se])N(C)C1CCCCC1)C1CCCCC1
inactive: dose: 15.0 mg/kg/injection, schedule: Q01DX005 (ip), vehicle: Klucel (hydroxypropylcellulose) (HPC) 95 % of control | [1] 96 % of control | [2] 100 % of control and 93 % of control | [3] 99 % of control

c1cnc2c(c1)Nc1cnncc1S2
inactive: dose: 100.0 mg/kg/injection, schedule: Q04DX002 (ip), vehicle: Klucel (hydroxypropylcellulose) (HPC) 98 % of control | dose: 200.0 mg/kg/injection, schedule: Q04DX002 (ip), vehicle: Klucel (hydroxypropylcellulose) (HPC) 100 % of control | dose: 400.0 mg/kg/injection, schedule: Q04DX002 (ip), vehicle: Klucel (hydroxypropylcellulose) (HPC) 92 % of control

O=C1CS(=O)(=O)C(c2ccccc2Cl)N1N1C(=O)CS(=O)(=O)C1c1ccccc1Cl (centres undefined)
inactive: [4] 96 % of control | [5] 90 % of control | [6] 89 % of control

NC(N)=NC(N)=Nc1ccc2ccc3cccc4ccc1c2c34
inactive: [7] 106 % of control | [8] 111 % of control

CC1=CC2(CC(C)(C)C1)N(c1ccccc1)C(=O)C2(c1ccccc1)c1ccccc1 (centres undefined)
inactive: [9] 91 % of control | [10] 91 % of control | [11] 87 % of control

COc1ccc2c(c1OC)C1=C(C2=O)c2cc3c(cc2CCN1)OCO3
inactive: dose: 50.0 mg/kg/injection, schedule: Q01DX005 (ip), vehicle: saline + Tween-80 + alcohol 102 % of control | dose: 100.0 mg/kg/injection, schedule: Q01DX005 (ip), vehicle: saline + Tween-80 + alcohol 100 % of control | dose: 200.0 mg/kg/injection, schedule: Q01DX005 (ip), vehicle: saline + Tween-80 + alcohol 102 % of control

CC1=NN(C(=O)NS(=O)(=O)c2ccc(CCNC(=O)c3nccnc3N)cc2)C(C)(C)C1
inactive: [4] 102 % of control | [5] 105 % of control | [6] 102 % of control

CCCCSc1nn(CCC#N)c(=O)[nH]c1=O
inactive: dose: 25.0 mg/kg/injection, schedule: Q01DX005 (ip), vehicle: water 98 % of control | dose: 50.0 mg/kg/injection, schedule: Q01DX005 (ip), vehicle: water 100 % of control | dose: 100.0 mg/kg/injection, schedule: Q01DX005 (ip), vehicle: water 103 % of control | dose: 200.0 mg/kg/injection, schedule: Q01DX005 (ip), vehicle: water 100 % of control

N=C(N)c1ccc(N=Nc2ccc(O)c3c2ccc[n+]3[O-])cc1
inactive: dose: 3.13 mg/kg/injection, schedule: Q01DX005 (ip), vehicle: Klucel (hydroxypropylcellulose) (HPC) 106 % of control | dose: 6.25 mg/kg/injection, schedule: Q01DX005 (ip), vehicle: Klucel (hydroxypropylcellulose) (HPC) 97 % of control | dose: 12.5 mg/kg/injection, schedule: Q01DX005 (ip), vehicle: Klucel (hydroxypropylcellulose) (HPC) 106 % of control | dose: 25.0 mg/kg/injection, schedule: Q01DX005 (ip), vehicle: Klucel (hydroxypropylcellulose) (HPC) 109 % of control and 110 % of control and 117 % of control | [9] 117 % of control | [10] 103 % of control and 123 % of control | [11] 110 % of control

COC(=O)CCCCC1=CCC2C(=O)C=C(O)C2C1 (centres undefined)
inactive: [12] 87 % of control | [13] 106 % of control | [14] 116 % of control

CN(C)c1ccc(Cc2ccc(N(C)C)c(C(O)(c3ccccc3)c3ccccc3)c2)cc1C(O)(c1ccccc1)c1ccccc1
inactive: dose: 1.56 mg/kg/injection, schedule: Q01DX005 (ip), vehicle: saline 100 % of control | dose: 3.13 mg/kg/injection, schedule: Q01DX005 (ip), vehicle: saline 97 % of control | dose: 6.25 mg/kg/injection, schedule: Q01DX005 (ip), vehicle: saline 90 % of control

COc1nc(OC)c2cnn(-c3ccc(Cl)cc3)c2n1
inactive: [1] 89 % of control | [2] 89 % of control | [3] 92 % of control | [15] 89 % of control

CC12CCC3C(CCC4N(CCCl)CCCC34C)C1CCC2O (centres undefined)
inactive: dose: 25.0 mg/kg/injection, schedule: Q01DX001 (ip), vehicle: saline 101 % of control | dose: 50.0 mg/kg/injection, schedule: Q01DX001 (ip), vehicle: saline 109 % of control | dose: 100.0 mg/kg/injection, schedule: Q01DX001 (ip), vehicle: saline 111 % of control

CC[Si](CC)(CC)OC(C#N)c1ccc2c(c1)OCO2 (centres undefined)
inactive: [4] 104 % of control | [5] 104 % of control | [6] 100 % of control

Clc1ccc(CN2COc3c(ccc4cccnc34)C2)c(Cl)c1
inactive: dose: 100.0 mg/kg/injection, schedule: Q04DX003 (ip), vehicle: Klucel (hydroxypropylcellulose) (HPC) 95 % of control | dose: 200.0 mg/kg/injection, schedule: Q04DX003 (ip), vehicle: Klucel (hydroxypropylcellulose) (HPC) 104 % of control | dose: 400.0 mg/kg/injection, schedule: Q04DX003 (ip), vehicle: Klucel (hydroxypropylcellulose) (HPC) 117 % of control

c1ccc(CN2C3Oc4ccccc4C2Oc2ccccc23)cc1
inactive: dose: 12.5 mg/kg/injection, schedule: Q01DX009 (ip), vehicle: saline with Tween-80 100 % of control | dose: 25.0 mg/kg/injection, schedule: Q01DX009 (ip), vehicle: saline with Tween-80 100 % of control | dose: 50.0 mg/kg/injection, schedule: Q01DX009 (ip), vehicle: saline with Tween-80 91 % of control

C=C1C(=O)OC2C(OC(=O)CC)CCCC12 (centres undefined)
inactive: [2] 95 % of control | [3] 98 % of control | [15] 110 % of control

Clc1cccc(NCNC2Nc3ccccc3N2)c1
inactive: dose: 15.0 mg/kg/injection, schedule: Q01DX005 (ip), vehicle: saline with Tween-80 96 % of control | dose: 30.0 mg/kg/injection, schedule: Q01DX005 (ip), vehicle: saline with Tween-80 97 % of control | [12] 93 % of control

Cn1c2ccccc2c(=O)c2c(O)cc3c(c21)C=CC(C)(C)O3
inactive: dose: 0.38 mg/kg/injection, schedule: Q01DX009 (ip), vehicle: Klucel (hydroxypropylcellulose) (HPC) 107 % of control | dose: 0.38 mg/kg/injection, schedule: Q01DX009 (ip), vehicle: saline with Tween-80 95 % of control | dose: 0.75 mg/kg/injection, schedule: Q01DX009 (ip), vehicle: Klucel (hydroxypropylcellulose) (HPC) 102 % of control and 97 % of control | dose: 0.75 mg/kg/injection, schedule: Q01DX009 (ip), vehicle: saline with Tween-80 98 % of control | dose: 1.5 mg/kg/injection, schedule: Q01DX009 (ip), vehicle: Klucel (hydroxypropylcellulose) (HPC) 99 % of control and 103 % of control | dose: 1.5 mg/kg/injection, schedule: Q01DX009 (ip), vehicle: saline with Tween-80 94 % of control | dose: 1.56 mg/kg/injection, schedule: Q01DX009 (ip), vehicle: Klucel (hydroxypropylcellulose) (HPC) 124 % of control | dose: 3.0 mg/kg/injection, schedule: Q01DX009 (ip), vehicle: Klucel (hydroxypropylcellulose) (HPC) 102 % of control and 103 % of control | dose: 3.0 mg/kg/injection, schedule: Q01DX009 (ip), vehicle: saline with Tween-80 94 % of control | dose: 3.12 mg/kg/injection, schedule: Q01DX009 (ip), vehicle: Klucel (hydroxypropylcellulose) (HPC) 101 % of control | dose: 6.25 mg/kg/injection, schedule: Q01DX009 (ip), vehicle: Klucel (hydroxypropylcellulose) (HPC) 102 % of control | dose: 12.5 mg/kg/injection, schedule: Q01DX009 (ip), vehicle: Klucel (hydroxypropylcellulose) (HPC) 100 % of control

COC(=O)C1(CC(=O)c2cc(Cl)ccc2Cl)NC(=S)NC(=O)C1C#N (centres undefined)
inactive: [12] 94 % of control | [13] 92 % of control | [14] 95 % of control

O=C(NC(CC1CCC2OCOC2C1)C(=O)O)c1ccccc1 (centres undefined)
inactive: [12] 111 % of control | [13] 102 % of control | [14] 105 % of control

Cc1ccc(S(=O)(=O)CC(=O)CC(=O)C(N)=O)cc1
inactive: [12] 109 % of control | [13] 108 % of control | [14] 104 % of control

NC(=O)N/N=C/Cn1ccc(=O)n(C/C=N/NC(N)=O)c1=O
inactive: [9] 91 % of control | [10] 87 % of control | [11] 87 % of control

CC1C[C@@H]2[C@H]([C@@H](O)C[C@@]3(C)[C@H]2CC[C@]3(O)C(=O)CF)[C@@]2(C)CCC(=O)C=C12 (some centres undefined)
inactive: dose: 100.0 mg/kg/injection, schedule: Q01DX009 (ip), vehicle: saline with Tween-80 100 % of control | [7] 109 % of control | dose: 200.0 mg/kg/injection, schedule: Q01DX009 (ip), vehicle: saline with Tween-80 95 % of control | [8] 109 % of control | dose: 400.0 mg/kg/injection, schedule: Q04DX003 (ip), vehicle: saline with Tween-80 100 % of control
